According to PMC6255974 (Frontiers in Pharmacology, 2018):
Where a name gives a salt, the structure may show the parent alone.

Legend:
[1] = target: T1, human adult muscle nicotinic acetylcholine receptor αβεδ (Homo sapiens, UniProt P02708+P11230+Q04844+Q07001); experiment: ACh-evoked currents at adult muscle nAChR in Xenopus oocytes, two-electrode voltage clamp; assay type: cell-based; conditions: read-out: IC50 of block of ACh-evoked currents
T1 construct: expressed in transfected cells; host or cells: Xenopus laevis oocytes injected with cRNA (cDNAs in pRBG4, gifts of A. G. Engel and F. Grassi)
Description: The deviations are represented by the standard error of the mean (SEM).

[2] = parameters: method as in Dieterich et al., 1984; conditions: humans; oral 2 × 260 mg quinine sulfate; ref Dieterich et al., 1984; cited from earlier work
[3] = target: human homomeric 5HT3A-receptors; parameters: method as in Thompson and Lummis, 2008; conditions: ref Thompson and Lummis, 2008; cited from earlier work
[4] = target: human heteromeric 5HT3AB-receptors; parameters: method as in Thompson and Lummis, 2008; conditions: ref Thompson and Lummis, 2008; cited from earlier work
[5] = system: neuronal rat α9α10 nAChRs; parameters: method as in Ballestero et al., 2005; conditions: ref Ballestero et al., 2005; cited from earlier work
[6] = system: recombinant muscle receptor expressed in HEK293 cells; conditions: concentrations up to 30 μM; ref Sieb et al., 1996; cited from earlier work
human GABA(A)-receptors = target: human GABA(A)-receptors; parameters: method as in Thompson and Lummis, 2008; conditions: ref Thompson and Lummis, 2008; cited from earlier work

T1 sequence (P02708 21-457): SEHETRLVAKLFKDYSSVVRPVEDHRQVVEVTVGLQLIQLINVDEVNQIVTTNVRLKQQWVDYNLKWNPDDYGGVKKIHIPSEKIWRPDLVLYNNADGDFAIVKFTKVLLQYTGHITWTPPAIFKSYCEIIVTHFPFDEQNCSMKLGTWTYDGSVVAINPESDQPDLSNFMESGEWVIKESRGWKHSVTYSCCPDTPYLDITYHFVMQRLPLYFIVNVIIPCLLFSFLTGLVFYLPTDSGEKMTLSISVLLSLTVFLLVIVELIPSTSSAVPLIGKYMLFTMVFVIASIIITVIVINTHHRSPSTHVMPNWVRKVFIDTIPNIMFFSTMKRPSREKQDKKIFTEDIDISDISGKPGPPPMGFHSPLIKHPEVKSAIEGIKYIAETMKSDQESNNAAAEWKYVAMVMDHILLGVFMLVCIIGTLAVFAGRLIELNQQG
T1 sequence (P11230 24-501): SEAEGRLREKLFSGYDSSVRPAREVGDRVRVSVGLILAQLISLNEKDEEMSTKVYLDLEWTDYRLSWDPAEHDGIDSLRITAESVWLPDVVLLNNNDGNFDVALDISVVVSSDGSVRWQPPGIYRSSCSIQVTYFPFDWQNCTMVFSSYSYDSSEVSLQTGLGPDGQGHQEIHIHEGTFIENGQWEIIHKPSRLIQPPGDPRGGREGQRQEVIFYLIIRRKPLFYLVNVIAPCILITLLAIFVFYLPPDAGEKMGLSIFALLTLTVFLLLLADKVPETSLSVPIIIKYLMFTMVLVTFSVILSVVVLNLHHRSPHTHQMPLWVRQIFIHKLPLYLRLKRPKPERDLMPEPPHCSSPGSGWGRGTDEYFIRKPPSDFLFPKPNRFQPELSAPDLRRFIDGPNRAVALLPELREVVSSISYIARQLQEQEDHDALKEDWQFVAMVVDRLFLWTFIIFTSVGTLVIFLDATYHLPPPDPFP
T1 sequence (Q07001 22-517): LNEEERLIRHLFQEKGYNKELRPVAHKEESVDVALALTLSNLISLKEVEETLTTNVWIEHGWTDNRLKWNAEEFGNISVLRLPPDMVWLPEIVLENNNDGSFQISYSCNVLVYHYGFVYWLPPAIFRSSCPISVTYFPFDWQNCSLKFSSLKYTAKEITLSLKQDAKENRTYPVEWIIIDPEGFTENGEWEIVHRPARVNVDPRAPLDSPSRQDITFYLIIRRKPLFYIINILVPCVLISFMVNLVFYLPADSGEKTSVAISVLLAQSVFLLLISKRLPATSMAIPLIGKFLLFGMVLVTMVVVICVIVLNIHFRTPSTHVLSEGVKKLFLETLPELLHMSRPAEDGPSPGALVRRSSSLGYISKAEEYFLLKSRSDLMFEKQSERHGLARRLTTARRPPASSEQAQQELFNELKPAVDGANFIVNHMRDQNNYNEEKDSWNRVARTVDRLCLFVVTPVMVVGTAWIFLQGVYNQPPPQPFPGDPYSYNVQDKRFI
T1 sequence (Q04844 21-493): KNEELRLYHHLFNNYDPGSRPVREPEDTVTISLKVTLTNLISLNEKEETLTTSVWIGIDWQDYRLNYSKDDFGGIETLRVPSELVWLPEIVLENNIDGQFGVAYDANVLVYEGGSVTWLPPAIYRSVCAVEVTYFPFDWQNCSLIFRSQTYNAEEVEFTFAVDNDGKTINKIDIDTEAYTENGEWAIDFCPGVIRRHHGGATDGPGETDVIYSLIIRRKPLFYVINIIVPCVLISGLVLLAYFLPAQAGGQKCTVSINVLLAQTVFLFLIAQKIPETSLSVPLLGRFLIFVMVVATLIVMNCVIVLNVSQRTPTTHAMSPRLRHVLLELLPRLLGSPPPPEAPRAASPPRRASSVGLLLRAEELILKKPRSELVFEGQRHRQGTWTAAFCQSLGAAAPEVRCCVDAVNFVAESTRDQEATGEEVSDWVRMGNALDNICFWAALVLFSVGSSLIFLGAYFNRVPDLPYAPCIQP

SMILES: CCN(CC)CCCC(C)Nc1ccnc2cc(Cl)ccc12 (stereo not shown) [chloroquine]
- IC50 [1]: 2.22 µM

SMILES: C=C[C@H]1C[N@@]2CC[C@H]1C[C@H]2[C@H](O)c1ccnc2ccc(OC)cc12 [quinine sulfate]
- Time of peak plasma concentration after intake [2]: about 2 h

SMILES: C=C[C@H]1C[N@@]2CC[C@H]1C[C@H]2[C@H](O)c1ccnc2ccc(OC)cc12 [quinine]
- IC50 [3]: ~1 µM
- IC50 [4]: ~16 µM
- IC50 [5]: ~1 µM
- Inhibition of the binding of α-bungarotoxin [6]: could not inhibit
- IC50 (human GABA(A)-receptors): ~1600 µM
